Experimental findings from US8138176B2, “Imidazo compounds” (Novartis AG, priority 2006, dated 2012) are described below.

The test relates to plasma aldosterone and corticosterone levels. The test is described as follows: Suppression of plasma aldosterone and corticosterone levels in ACTH-stimulated rats. The class given is in vivo, Wistar rats. The following applies: rat plasma, 4 mg/kg p.o., 2 h after dosing vs 1 h before dosing. The procedure:
The aldosterone- and corticosterone-suppressing activity of herein described compounds may be assessed with the following in vivo protocol.
Adult male Wistar rats weighing between 250 and 350 grams are kept under the usual 12 hour light and 12 hour dark conditions at a temperature of 23° C.±2° C. On the first day of the experiment, the animals receive a subcutaneous injection of a depot ACTH product in a dose of 1.0 mg/kg weight (SYNACTHEN-Depot, Novartis, Basel, CH) 16 hours prior to the administration of a test compound. […] An alternative method to stimulate aldosterone secretion consists in subjecting rats to a low salt diet for 48 hours and applying the diuretic furosemide at 10 mg/kg by subcutaneous or intraperitoneal administration 16 hours, respectively 2 hours prior to the start of the experiment. On the second day of the experiment, the animals are divided into test groups of 5 animals and subjected to a first bleed 1 hour prior to the administration of test compound. Subsequently, and 16 hours after the injection of the ACTH product, the animals receive either vehicle or test compound dissolved in vehicle in a variable dose range from 0.02 to 20 mg/kg by oral gavage. The animals are bled two more times from the vena subclavia under isoflurane anaesthesia 2 and 6 hours after dosing. The blood is collected in heparin-treated tubes. The plasma samples are obtained by centrifugation and stored at −20° C. An alternative method to bleed animals time-dependently consists in using animals that are chronically carotid catheterized which allows the periodical sampling of up to 0.2 ml of blood using an AccuSampler (DiLab Europe, Lund, Sweden). The blood sampling with the AccuSampler may occur 1 hour prior to the administration of a test compound and 2, 4, 6, 8, 12, 16 and 24 hours thereafter. The blood samples are anticoagulated with heparin and centrifuged. The aldosterone and corticosterone concentrations of the plasma samples can be determined with a radioimmunoassay as described above for the in vitro test systems.
The selective suppression of plasma steroid levels as for instance aldosterone in comparison to corticosterone may serve as a measure for in vivo bioavailability and pharmacodynamic enzyme inhibitory activity of the herein described compounds. The evaluation of the data may occur relative to the application of vehicle or quantitatively by determination of the area under the curve (AUC).

On to `Fc1ccc(C2COCc3cncn32)cc1` (stereo not shown) [Example 14, 5-(4-Fluorophenyl)-5,6-dihydro-8H-imidazo[5,1-c][1,4]oxazine], for which the “Aldosterone levels (% change at 2 h)” value is given as −58 % change and the “Corticosterone levels (% change at 2 h)” value is reported as −7 % change.
On the same counts, the results for `CC(=O)c1ccc(C2COCc3cncn32)cc1` (stereo not shown) [Example 16] are −67 % change and −9 % change.
